PMC12501029, “Discovery of a CNS active GSK3 degrader using orthogonally reactive linker screening” (Nature Communications, 2025)

Key:
[1] = Plasma protein binding, equilibrium dialysis, rat; assay type: in vitro ADME; details: male, Han Wistar, 5 h dialysis, read-out: Plasma Protein Binding (Fu) Rat
Experimental: (§1) A 96-well equilibrium dialysis apparatus was used to determine the free fraction in plasma for each compound (HT Dialysis LLC, Gales Ferry, CT). Membranes (12–14 kDA cut-off) were conditioned in deionised water for 60 min, followed by conditioning in 80:20 deionised water: ethanol for 20 min, and then rinsed in isotonic buffer before use. Female CD1 mouse, Male rat Han Wistar and human plasma was removed from the freezer and allowed to thaw on the day of experiment. Thawed plasma was then centrifuged (Allegra X12-R, Beckman Coulter, USA), spiked with test compound (final concentration 10 μg/mL), and 150 μL aliquots (n = 6 replicate determinations) loaded into the 96-well equilibrium dialysis plate. Dialysis vs isotonic buffer (150 μL) was carried out for 5 h in a temperature-controlled incubator at ca. 37 °C (Barworld Scientific Ltd, UK) using an orbital microplate shaker at 100 revolutions/minute (Barworld Scientific Ltd, UK). At the end of the incubation period, 50 μL aliquots of plasma or buffer were transferred to a 96-well 2.1 mL Waters ^TM plate and the composition in each well balanced with control fluid (50 μL), such that the volume of buffer to plasma is the same. […] All samples were analysed by UPLC-MS/MS. The unbound fraction was determined as the ratio of the peak area in buffer to that in plasma.

[2] = Intrinsic clearance (Cli), rat liver microsomes; assay type: in vitro ADME; details: 0.5 µM, scaling factor 46 mg microsomal protein per g liver
Experimental: Test compound (0.5 µM) was incubated with female CD1 mouse, male rat Han Wistar and pooled human liver microsomes (Xenotech^TM; 0.5 mg/mL 50 mM potassium phosphate buffer, pH7.4) and the reaction started with addition of excess NADPH (8 mg/mL 50 mM potassium phosphate buffer, pH7.4). Immediately, at time zero, then at 3, 6, 9, 15 and 30 min an aliquot (50 µL) of the incubation mixture was removed and mixed with acetonitrile (100 uL) to stop the reaction. An internal standard was added to all samples, the samples centrifuged to sediment precipitated protein and the plates then sealed prior to UPLC-MSMS analysis (Xevo TQ-S Micro, Waters^TM). XLfit (IDBS, UK) was used to calculate the exponential decay and consequently the rate constant (k) from the ratio of peak area of test compound to internal standard at each timepoint. The rate of intrinsic clearance (CLi) of each test compound was then calculated using the following calculation:1 CLi(mL/min/gliver)=kxVxMicrosomalproteinyield Where V (mL/mg protein) is the incubation volume/mg protein added and microsomal protein yield is taken as 48 mg, 46 mg and 40 mg protein/g liver for mouse, rat and human, respectively. Verapamil (0.5 µM) was used as a positive control to confirm acceptable assay performance.

[3] = Plasma protein binding, equilibrium dialysis, human; assay type: in vitro ADME; details: 5 h dialysis, read-out: Plasma Protein Binding (Fu) Hu
Experimental: as §1

[4] = Plasma protein binding, equilibrium dialysis, mouse; assay type: in vitro ADME; details: female, CD1, mouse
Experimental: A 96-well equilibrium dialysis apparatus was used to determine the free fraction in plasma for each compound (HT Dialysis LLC, Gales Ferry, CT). Membranes (12–14 kDA cut-off) were conditioned in deionised water for 60 min, followed by conditioning in 80:20 deionised water: ethanol for 20 min, and then rinsed in isotonic buffer before use. Female CD1 mouse, Male rat Han Wistar and human plasma was removed from the freezer and allowed to thaw on the day of experiment. Thawed plasma was then centrifuged (Allegra X12-R, Beckman Coulter, USA), spiked with test compound (final concentration 10 μg/mL), and 150 μL aliquots (n = 6 replicate determinations) loaded into the 96-well equilibrium dialysis plate. Dialysis vs isotonic buffer (150 μL) was carried out for 5 h in a temperature-controlled incubator at ca. 37 °C (Barworld Scientific Ltd, UK) using an orbital microplate shaker at 100 revolutions/minute (Barworld Scientific Ltd, UK). At the end of the incubation period, 50 μL aliquots of plasma or buffer were transferred to a 96-well 2.1 mL Waters ^TM plate and the composition in each well balanced with control fluid (50 μL), such that the volume of buffer to plasma is the same. Sample extraction was performed by the addition of 200 μL of acetonitrile containing an appropriate internal standard. Samples were allowed to mix for 1 min and then centrifuged at 3000 rpm in 96-well blocks for 15 min (Allegra X12-R, Beckman Coulter, USA), after which 150 μL of supernatant was removed to 50 μL of water. All samples were analysed by UPLC-MS/MS. The unbound fraction was determined as the ratio of the peak area in buffer to that in plasma.

[5] = Cassette PK study with 22, 25 and 26; assay type: in vivo, female Balb/c mice; details: i.v. bolus cassette 0.5 mg/kg; for AUC(0-t) / clearance: female, Balb/c, mouse, iv, whole blood; for clearance: read-out: Cl_obs
Excerpt: Fifteen female mice of the Balb/c strain were obtained from Charles River Laboratories, UK. Animals were maintained under a 12-h light/12-h dark cycle, in Thoren mouse caging containing EC0 aspen bedding (DBM, UK), with 'Sizzlenest' and 'Rodent Rolls' nesting material (DBM). Enrichment materials included aspen chew sticks, cardboard houses, tunnels, swings, and sunflower seeds. All animals had ad libitum access to food (5LF2 Extruded Diet, IPS Ltd, UK) and tap water throughout. Temperature and relative humidity were maintained between 19 °C–24 °C and 45%–65%, respectively. All animals received a minimum of 10 days of acclimatisation prior to the start of the study.
The cassette formulation (22, 25 and 26) was prepared by producing separate stock solutions of each compound dissolved in DMSO (dimethyl sulfoxide) at a concentration of 6 mg/mL. Aliquots of each stock solution were combined in equal parts to produce a stock solution containing 2 mg/mL of each compound. This solution was then diluted with Polyethylene glycol 400 (PEG400), followed by drop-wise addition of sterile water. The final formulation consisted of 5% DMSO, 40% PEG400, and 55% water, and contained 0.1 mg/mL of each compound. For the cassette PK study, three female Balb/c mice were dosed via a bolus intravenous injection at a dose level of 0.5 mg/kg per compound (5 mL/kg). Serial blood samples (10 µL per sample) were collected from the lateral tail vein of each mouse at 5, 15 and 30 min, 1, 2, 4, 6, 8, and 24 h after dose administration. All blood samples were diluted into 90 µL of Milli‑Q ultrapure water and stored at −20 °C prior to bioanalysis. The concentration of 22, 25 and 26 in blood and brain was determined by UPLC-MS/MS.
Blood samples (10 µL) from study mice were diluted 1× with 90 µL of water immediately when the sample was taken. All calibration, quality control, blanks and double blank samples (all 100 µL volume) were mixed (vortexed) with 300 µL of LCMS grade acetonitrile to precipitate proteins.
For study samples, a volume (30 µL) was mixed (vortexed) with a volume (90 µL) of acetonitrile to precipitate proteins. After protein precipitation, all samples were centrifuged to pellet the proteins. Study samples in Micronics tubes were centrifuged using a Beckman Coutler Allegra C-12R Centrifuge for 10 min at 3750 rpm. All other samples in Eppendorf tubes were centrifuged using a Sigma SciQuip 1–14 centrifuge for 10 min (14,800 rpm/16,163 × g). Supernatant from study samples (80 µL) and calibration samples, QCs, blanks, and double blanks (200 µL) were then transferred to HPLC glass vials containing Milli-Q water (40 µL or 100 µL, respectively), ready for LCMS analysis.

[6] = 10 μg/mL, 5 h dialysis, read-out: Plasma Protein Binding (Fu) Mu

For `Cn1nc(N2CCC(=O)NC2=O)c2ccc(CN3CCN(Cc4ccc(-c5cn(-c6ccc(-c7cn8nccc(C(=O)Nc9cnccc9N9CCOCC9)c8n7)cc6)nn5)nc4)CC3)cc21` [compound 24], the fraction unbound at 5 h, 10 μg/mL [1] was 0.00064, the “Scaled Microsomal Stability RatClint” value [2] was 0.51 ml/min/g liver and the fraction unbound at 5 h, 10 μg/mL [3] was 0.0072. For the same compound, the fraction unbound at 5 h, 10 μg/mL [4, 6] was 0.0052 and the fraction unbound at 5 h, 10 μg/mL ([4]; equilibrium dialysis, read-out: unbound fraction in mouse plasma) was 0.005.

For `Cn1nc(N2CCC(=O)NC2=O)c2ccc(CN3CCN(CCCc4cn(-c5ccc(-c6cn7nccc(C(=O)Nc8cnccc8N8CCOCC8)c7n6)cc5)nn4)CC3)cc21` [compound 26], the fraction unbound at 5 h, 10 μg/mL [1] was 0.01, the “Scaled Microsomal Stability RatClint” value [2] was 1.3 ml/min/g liver and the AUC(0-t) [5] was 590 ng·h/mL. The clearance [5] was 8 mL/min/kg, the Cl_obs [5] was “moderate” and the Half_Life [5] was 2.7 h. The Vss_obs [5] was 1.9 L/kg, the fraction unbound at 5 h, 10 μg/mL [3] was 0.05 and the fraction unbound at 5 h, 10 μg/mL [4, 6] was 0.021.

In the case of `O=C1CCC(NC(=O)c2ccc(CN3CCN(Cc4ccc(-c5cn(-c6ccc(-c7cn8nccc(C(=O)Nc9cnccc9N9CCOCC9)c8n7)cc6)nn5)nc4)CC3)cn2)C(=O)N1` (centres unmarked) [compound 22], the “Scaled Microsomal Stability RatClint” value [2] is reported as 0.71 ml/min/g liver, the AUC(0-t) [5] is reported as 444 ng·h/mL and the clearance [5] is reported as 12 mL/min/kg. For the same compound, the Cl_obs [5] was “moderate”, the Half_Life [5] was 2.8 h and the Vss_obs [5] was 2.8 L/kg.
